{"source": "ChEMBL document CHEMBL1155558", "about": "“New cyclic peptide and bisindolyl benzenoid metabolites from the sclerotia of Aspergillus sclerotiorum” (2000)", "test_system": "Spodoptera frugiperda", "experiment": "Activity against Spodoptera frugiperda assessed as reduction in feeding rate at 50 ug/cotton leaf disk", "assay_type": "functional", "set-up": "scale not given: the % may be the effect or the level left"}
{"compound": "CN1C(=O)[C@H](CCC(N)=O)NC(=O)CNC(=O)[C@H](Cc2ccccc2)N(C)C(=O)[C@H](Cc2ccccc2)NC(=O)CNC(=O)[C@@H]1Cc1ccccc1", "note": "[SCLERAMIDE]", "values": [{"measurement": "Activity", "value": 27, "unit": "%"}]}
